In patent US20120034613A1, “Apparatus and Method for Testing Relationships Between Gene Expression and Physical Appearance of Skin” (NSE Products, Inc., priority 2010, published 2012):

Tested on: EpidermFT™ Skin Model (EFT-400) full thickness skin cultures
Assay: Affymetrix GeneChip HG U133 Plus 2.0 microarray global gene expression, agent-exposed vs untreated skin cultures
Assay type: cell-based, human
[1] = probe 239272_at, Table 3 skin structure
[2] = probe 1552319_a_at, 0.5%, 24 hr
[3] = probe 1552578_a_at, 0.5%, 24 hr
[4] = probe 1554252_a_at, 0.5%, 24 hr
[5] = probe 1554741_s_at, 0.5%, 24 hr
[6] = probe 1554921_a_at, 0.5%, 24 hr
[7] = probe 1554980_a_at, 0.5%, 24 hr
[8] = probe 1554997_a_at, 0.5%, 24 hr
[9] = probe 1555103_s_at, 0.5%, 24 hr
[10] = probe 1555416_a_at, 0.5%, 24 hr
[11] = probe 1556410_a_at, 0.5%, 24 hr
[12] = probe 1558143_a_at, 0.5%, 24 hr
[13] = tissue exposed to salicin, skin structure gene, Table 4
[14] = tissue exposed to salicin, skin structure gene, Table 4, direction down
[15] = tissue exposed to salicin, skin structure gene, Table 4, direction up

OCc1ccccc1O[C@@H]1O[C@H](CO)[C@@H](O)[C@H](O)[C@H]1O [Salicin, 2-(Hydroxymethyl)phenyl β-D-glucospyranoside]
Direction NFKBIZ (probe 223217_s_at, 0.5%, 24 hr): up | Fold change NFKBIZ (probe 223217_s_at, 0.5%, 24 hr): 2.35 | Direction SLC25A19 (probe 223222_at, 0.5%, 24 hr): up | Fold change SLC25A19 (probe 223222_at, 0.5%, 24 hr): 2.243 | Direction HAS3 (probe 223541_at, 0.5%, 24 hr): down | Fold change HAS3 (probe 223541_at, 0.5%, 24 hr): 3.713 | Direction TRPC4 (probe 224220_x_at, 0.5%, 24 hr): up | Fold change TRPC4 (probe 224220_x_at, 0.5%, 24 hr): 2.708 | Direction CNFN (probe 224329_s_at, 0.5%, 24 hr): down | Fold change CNFN (probe 224329_s_at, 0.5%, 24 hr): 5.442 | Direction H2AFJ (probe 225245_x_at, 0.5%, 24 hr): down | Fold change H2AFJ (probe 225245_x_at, 0.5%, 24 hr): 2.328 | Direction ABHD2 (probe 225337_at, 0.5%, 24 hr): up | Fold change ABHD2 (probe 225337_at, 0.5%, 24 hr): 2.704 | Direction NRP2 (probe 225566_at, 0.5%, 24 hr): up | Fold change NRP2 (probe 225566_at, 0.5%, 24 hr): 3.198 | Direction FGF11 (probe 227271_at, 0.5%, 24 hr): down | Fold change FGF11 (probe 227271_at, 0.5%, 24 hr): 2.672 | Direction HS3ST3B1 (probe 227361_at, 0.5%, 24 hr): up | Fold change HS3ST3B1 (probe 227361_at, 0.5%, 24 hr): 3.41 | Direction SERPINE2 (probe 227487_s_at, 0.5%, 24 hr): up | Fold change SERPINE2 (probe 227487_s_at, 0.5%, 24 hr): 3.148 | Direction ASAM (probe 228082_at, 0.5%, 24 hr): up | Fold change ASAM (probe 228082_at, 0.5%, 24 hr): 2.108 | Direction IL20RB (probe 228575_at, 0.5%, 24 hr): down | Fold change IL20RB (probe 228575_at, 0.5%, 24 hr): 10.04 | Direction SCN9A (probe 229199_at, 0.5%, 24 hr): up | Fold change SCN9A (probe 229199_at, 0.5%, 24 hr): 3.818 | Direction CREB5 (probe 229228_at, 0.5%, 24 hr): up | Fold change CREB5 (probe 229228_at, 0.5%, 24 hr): 9.768 | Direction TNS4 (probe 230398_at, 0.5%, 24 hr): down | Fold change TNS4 (probe 230398_at, 0.5%, 24 hr): 2.738 | Direction SLC20A1 (probe 230494_at, 0.5%, 24 hr): up | Fold change SLC20A1 (probe 230494_at, 0.5%, 24 hr): 2.526 | Direction KLF15 (probe 231015_at, 0.5%, 24 hr): up | Fold change KLF15 (probe 231015_at, 0.5%, 24 hr): 2.338 | Direction KGFLP2 (probe 231031_at, 0.5%, 24 hr): up | Fold change KGFLP2 (probe 231031_at, 0.5%, 24 hr): 3.34 | Direction EPPK1 (probe 232165_at, 0.5%, 24 hr): down | Fold change EPPK1 (probe 232165_at, 0.5%, 24 hr): 12.4 | Direction ELOVL3 (probe 234513_at, 0.5%, 24 hr): down | Fold change ELOVL3 (probe 234513_at, 0.5%, 24 hr): 2.048 | Direction KRTCAP3 (probe 235148_at, 0.5%, 24 hr): down | Fold change KRTCAP3 (probe 235148_at, 0.5%, 24 hr): 2.158 | Direction GSTA4 (probe 235405_at, 0.5%, 24 hr): down | Fold change GSTA4 (probe 235405_at, 0.5%, 24 hr): 3.3 | Direction SGPP2 (probe 238567_at, 0.5%, 24 hr): down | Fold change SGPP2 (probe 238567_at, 0.5%, 24 hr): 5.641 | Direction MMP28 [1]: down | Fold change MMP28 [1]: 4.074 | Direction MMP28 (probe 239273_s_at, 0.5%, 24 hr): down | Fold change MMP28 (probe 239273_s_at, 0.5%, 24 hr): 2.678 | Direction DSEL (probe 244852_at, 0.5%, 24 hr): up | Fold change DSEL (probe 244852_at, 0.5%, 24 hr): 2.251 | Direction KLK8 [2]: down | Fold change KLK8 [2]: 4.867 | Direction MYO3B [3]: up | Fold change MYO3B [3]: 2.338 | Direction SNX21 (probe 1553960_at, 0.5%, 24 hr): down | Fold change SNX21 (probe 1553960_at, 0.5%, 24 hr): 2.031 | Direction LASS3 [4]: down | Fold change LASS3 [4]: 15.34 | Direction FGF7 /// KGFLP1 /// KGFLP2 [5]: up | Fold change FGF7 /// KGFLP1 /// KGFLP2 [5]: 2.506 | Direction SCEL [6]: down | Fold change SCEL [6]: 6.1 | Direction ATF3 [7]: up | Fold change ATF3 [7]: 2.623 | Direction PTGS2 [8]: up | Fold change PTGS2 [8]: 6.813 | Direction FGF7 [9]: up | Fold change FGF7 [9]: 2.35 | Direction ALOX15B [10]: down | Fold change ALOX15B [10]: 2.215 | Direction KRTAP19-1 [11]: up | Fold change KRTAP19-1 [11]: 24.65 | Direction BCL2L11 [12]: up | Fold change BCL2L11 [12]: 2.347 | Direction LCE1E (probe 1559224_at, 0.5%, 24 hr): down | Fold change LCE1E (probe 1559224_at, 0.5%, 24 hr): 4.811 | Direction LCE1B (probe 1560531_at, 0.5%, 24 hr): down | Fold change LCE1B (probe 1560531_at, 0.5%, 24 hr): 71.235 | Direction ITGB1 (probe 1561042_at, 0.5%, 24 hr): up | Fold change ITGB1 (probe 1561042_at, 0.5%, 24 hr): 2.151 | Direction FLG2 (probe 1569410_at, 0.5%, 24 hr): down | Fold change FLG2 (probe 1569410_at, 0.5%, 24 hr): 45.91 | Direction COL4A1 (211981_at) [13]: up | Direction FBN2 (203184_at) [13]: up | Direction FN1 (214702_at) [13]: up | Direction FNDC3A (215910_s_at) [13]: up | Direction FOXO1 (202724_s_at) [13]: up | Direction IGFBP5 (211958_at) [13]: up | Direction ITGB1 (1561042_at) [13]: up | Direction KRT5 (201820_at) [13]: down | Direction KRT9 (208188_at) [13]: down | Direction MMP28 (239272_at) [13]: down | Direction SOD2 (215078_at) [13]: up | Direction TIMP3 (201150_s_at) [13]: up | Direction TNC (216005_at) [13]: up | Direction TNFAIP3 (202643_s_at) [13]: up | Fold change KRT5 (201820_at) [14]: 3.737 | Fold change KRT9 (208188_at) [14]: 3.737 | Fold change MMP28 (239272_at) [14]: 4.074 | Fold change COL4A1 (211981_at) [15]: 2.121 | Fold change FBN2 (203184_at) [15]: 2.028 | Fold change FN1 (214702_at) [15]: 2.71 | Fold change FNDC3A (215910_s_at) [15]: 3.663 | Fold change FOXO1 (202724_s_at) [15]: 2.098 | Fold change IGFBP5 (211958_at) [15]: 2.712 | Fold change ITGB1 (1561042_at) [15]: 2.151 | Fold change SOD2 (215078_at) [15]: 5.712 | Fold change TIMP3 (201150_s_at) [15]: 2.058 | Fold change TNC (216005_at) [15]: 2.719 | Fold change TNFAIP3 (202643_s_at) [15]: 6.915
